Laboratory results published in US20240139185A1, “COMPOUNDS THAT PARTICIPATE IN COOPERATIVE BINDING AND USES THEREOF” (Revolution Medicines, Inc., priority 2018, published 2024).

Experiments:
cyclophilin A (CYPA) = cyclophilin A (CYPA) (Homo sapiens, UniProt P62937); assay: CYPA-compound binary complex formation by SPR; conditions: read-out: CYPA Binding Affinity
How it was run: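 Steady-state fit of SPR responses gave binding affinity. Analyte series: 50 μM downward, 2-fold, 10 points, running buffer HBS-P+ (0.05% Tween20, pH7.4, 2% DMSO), 60 s on/60 s off. Surface: biotinylated CypA-Avi captured at 4 μg/ml against a reference cell, regenerated with NaOH/guanidine.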

[1] = target: T1, BRAF-GTP-KRAS-G12C complex (Homo sapiens, UniProt P01116+P62937, G12C); assay: KRAS-BRAF complex disruption through competition with CYPA-compound by TR-FRET; conditions: biochemical BRAF-KRAS G12C-GTP disruption assay EC50, with CYPA
T1 construct: 50 nM of His6-KRas G12C-GTP (1-169); 500 nM of tagless CypA (1-165)
How it was run: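 Compound-driven loss of KRAS–BRAF RBD TR-FRET signal, Eu-anti-His/APC-anti-GST pair (10/50 nM, 1.5 h), following a 3 h room-temperature preincubation of 50 nM His6-KRAS G12C-GTP and 500 nM CypA in 25 mM Hepes pH 7.3 buffer. EC50 by 4-parameter fit. Variants used wild-type KRAS in place of G12C or no CypA.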

pERK in H358 cells = assay: pERK inhibition in H358 cells; format: cell-based, human; conditions: 4 hours treatment, read-out: Cellular pERK inhibition
How it was run: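 Human lung cancer H358 cells in RPMI/10% FBS were exposed to compound or DMSO for 4 h. Fixed and permeabilized cells were stained overnight at 4 C with anti-phospho-ERK1/2 (Thr202/Tyr204). Near-infrared imaging read the pERK signal at 800 nm, with DRAQ5 at 700 nm.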

| SMILES | Kd (cyclophilin A (CYPA)) | EC50 [1] | IC50 (pERK in H358 cells) |
| --- | --- | --- | --- |
| Cc1c(C#N)c2ccc3cc2n1CC(C)(C)COC(=O)[C@@H]1CCCN(N1)C(=O)[C@@H](NC(=O)[C@H](C(C)C)N(C)C(=O)C1CN(C(=O)CCl)C1)Cc1cc(O)cc-3c1 [Compound 106] | 5 to 15 µM | ≤ 0.5 µM | 1 to 10 µM |
| CC(C)C(C(=O)NC1Cc2cc(O)cc(c2)-c2ccc3c(C(=O)N(C)C)cn(c3c2)CC(C)(C)COC(=O)C2CCCN(N2)C1=O)N(C)C(=O)C1CN(C(=O)CCl)C1 (stereo not drawn) [Compound 109] | > 15 µM | ≤ 0.5 µM | > 10 µM |
| C=CS(=O)(=O)N1CCN([C@H](C(=O)N[C@H]2Cc3cc(O)cc(c3)-c3ccc4nc(C)n(c4c3)CC(C)(C)COC(=O)[C@@H]3CCCN(N3)C2=O)C(C)C)C1=O [Compound 152] | 5 to 15 µM | ≤ 0.5 µM | 1 to 10 µM |
| CC(C)[C@@H](C(=O)N[C@H]1Cc2cc(O)cc(c2)-c2cc3c(ccc(C#N)c3s2)OCCCOC(=O)[C@@H]2CCCN(N2)C1=O)N(C)C(=O)C1CN(C(=O)CCl)C1 [Compound 172] | 5 to 15 µM | 0.5 to 5 µM | > 10 µM |
| CC(C)[C@@H](C(=O)N[C@H]1Cc2cc(O)cc(c2)-c2ccc3c(C#N)cn(c3n2)CC(C)(C)COC(=O)[C@@H]2CCCN(N2)C1=O)N(C)C(=O)C1CN(C(=O)CCl)C1 [Compound 176] | 5 to 15 µM | ≤ 0.5 µM | 1 to 10 µM |
| CC(C)[C@@H](C(=O)N[C@H]1Cc2cc(O)cc(c2)-c2cc3c(ccn3CC(C)(C)COC(=O)[C@@H]3CCCN(N3)C1=O)cn2)N(C)C(=O)C1CN(C(=O)CCl)C1 [Compound 178] | 5 to 15 µM | 0.5 to 5 µM | > 10 µM |
| CC(C)[C@@H](C(=O)N[C@H]1Cc2cc(O)cc(c2)-c2ccc3c(C#N)ccc(c3c2)OCCCOC(=O)[C@@H]2CCCN(N2)C1=O)N(C)C(=O)C1CN(C(=O)CCl)C1 [Compound 185] | ≤ 5 µM | 0.5 to 5 µM | > 10 µM |
| CC#CC(=O)N1CC(C(=O)N(C)[C@H](C(=O)N[C@H]2Cc3cc(O)cc(c3)-c3ccc4c(c3)n(c(=O)n4C)CC(C)(C)COC(=O)[C@@H]3CCCN(N3)C2=O)C(C)C)C1 [Compound 190] | ≤ 5 µM | 0.5 to 5 µM | > 10 µM |
| C=CC(=O)N1CCN([C@H](C(=O)N[C@H]2Cc3cc(O)cc(c3)-c3ccc4cnn(c4c3)CC(C)(C)COC(=O)[C@@H]3CCCN(N3)C2=O)C(C)C)C1=O [Compound 199] | 5 to 15 µM | 0.5 to 5 µM | > 10 µM |
| C=CC(=O)N1CCN([C@H](C(=O)N[C@H]2Cc3cc(O)cc(c3)-c3ccc4c(Cl)nn(c4c3)CC(C)(C)COC(=O)[C@@H]3CCCN(N3)C2=O)C(C)C)C1=O [Compound 200] | > 15 µM | ≤ 0.5 µM | > 10 µM |
| C=CC(=O)N1CCC1C(=O)N(C)C(C(=O)NC1Cc2cc(O)cc(c2)-c2ccc3c(C(F)F)nn(c3c2)CC(C)COC(=O)C2CCCN(N2)C1=O)C(C)C (stereo not drawn) [Compound 203] | > 15 µM | > 5 µM | > 10 µM |
| C=CC(=O)N1CCC1C(=O)N(C)C(C(=O)NC1Cc2cc(O)cc(c2)-c2ccc3c(C(F)F)nn(c3c2)CC(C)COC(=O)C2CCCN(N2)C1=O)C(C)C (stereo not drawn) [Compound 204] | 5 to 15 µM | > 5 µM | 1 to 10 µM |
| C=CC(=O)N1CCCC1C(=O)N(C)C(C(=O)NC1Cc2cc(O)cc(c2)-c2ccc3c(C(F)F)nn(c3c2)CC(C)COC(=O)C2CCCN(N2)C1=O)C(C)C (stereo not drawn) [Compound 205] | > 15 µM | > 5 µM | > 10 µM |
| CC(C)[C@@H](C(=O)N[C@H]1Cc2cc(O)cc(c2)-c2ccc3c(-c4ccnn4C)cn(c3c2)CC(C)(C)COC(=O)[C@@H]2CCCN(N2)C1=O)N(C)C(=O)C1CN(C(=O)CCl)C1 [Compound 239] | ≤ 5 µM | ≤ 0.5 µM | 1 to 10 µM |
| Cc1cnn(C)c1-c1cn2c3cc(ccc13)-c1cc(O)cc(c1)C[C@H](NC(=O)[C@H](C(C)C)N(C)C(=O)C1CN(C(=O)CCl)C1)C(=O)N1CCC[C@H](N1)C(=O)OCC(C)(C)C2 [Compound 240] | 5 to 15 µM | ≤ 0.5 µM | 1 to 10 µM |

Results, then the compound that gave them:

| Kd (cyclophilin A (CYPA)) | EC50 [1] | IC50 (pERK in H358 cells) | SMILES |
| --- | --- | --- | --- |
| > 15 µM | ≤ 0.5 µM | 1 to 10 µM | Cc1cc2ccc3cc2n1CC(C)(C)COC(=O)[C@@H]1CCCN(N1)C(=O)[C@@H](NC(=O)[C@H](C(C)C)N(C)C(=O)C1CN(C(=O)CCl)C1)Cc1cc(O)cc-3c1 [Compound 103] |
| > 15 µM | ≤ 0.5 µM | ≤ 1 µM | CC(C)[C@@H](C(=O)N[C@H]1Cc2cc(O)cc(c2)-c2ccc3c(Cl)cn(c3c2)CC(C)(C)COC(=O)[C@@H]2CCCN(N2)C1=O)N(C)C(=O)C1CN(C(=O)CCl)C1 [Compound 104] |
| 5 to 15 µM | ≤ 0.5 µM | > 10 µM | CNC(=O)c1cn2c3cc(ccc13)-c1cc(O)cc(c1)C[C@H](NC(=O)[C@H](C(C)C)N(C)C(=O)C1CN(C(=O)CCl)C1)C(=O)N1CCC[C@H](N1)C(=O)OCC(C)(C)C2 [Compound 108] |
| ≤ 5 µM | ≤ 0.5 µM | > 10 µM | CNC(=O)c1cc2ccc3cc2n1CC(C)COC(=O)C1CCCN(N1)C(=O)C(NC(=O)C(C(C)C)N(C)C(=O)C1CN(C(=O)CCl)C1)Cc1cc(O)cc-3c1 (stereo not drawn) [Compound 115] |
| 5 to 15 µM | ≤ 0.5 µM | ≤ 1 µM | CC(C)[C@@H](C(=O)N[C@H]1Cc2cc(O)cc(c2)-c2ccc3c(C4CC4)cn(c3c2)C[C@H](C)COC(=O)[C@@H]2CCCN(N2)C1=O)N(C)C(=O)C1CN(C(=O)CCl)C1 [Compound 117] |
| > 15 µM | ≤ 0.5 µM | 1 to 10 µM | CC(C)[C@@H](C(=O)N[C@H]1Cc2cc(O)cc(c2)-c2ccc3c(C4CCC4)cn(c3c2)C[C@H](C)COC(=O)[C@@H]2CCCN(N2)C1=O)N(C)C(=O)C1CN(C(=O)CCl)C1 [Compound 118] |
| 5 to 15 µM | ≤ 0.5 µM | > 10 µM | CC(C)[C@@H](C(=O)N[C@H]1Cc2cc(O)cc(c2)-c2ccc3ncn(c3c2)CC(C)(C)COC(=O)[C@@H]2CCCN(N2)C1=O)N(C)C(=O)C1CN(C(=O)CCl)C1 [Compound 139] |
| 5 to 15 µM | ≤ 0.5 µM | > 10 µM | COCc1nc2ccc3cc2n1CC(C)(C)COC(=O)[C@@H]1CCCN(N1)C(=O)[C@@H](NC(=O)[C@H](C(C)C)N(C)C(=O)C1CN(C(=O)CCl)C1)Cc1cc(O)cc-3c1 [Compound 143] |
| ≤ 5 µM | ≤ 0.5 µM | > 10 µM | Cc1nc2ccc3cc2n1C[C@H](C)COC(=O)[C@@H]1CCCN(N1)C(=O)[C@@H](NC(=O)[C@H](C(C)C)N(C)C(=O)C1CN(C(=O)CCl)C1)Cc1cc(O)cc-3c1 [Compound 147] |
| 5 to 15 µM | ≤ 0.5 µM | > 10 µM | Cc1nc2ccc3cc2n1CC1(CC1)COC(=O)[C@@H]1CCCN(N1)C(=O)[C@@H](NC(=O)[C@H](C(C)C)N(C)C(=O)C1CN(C(=O)CCl)C1)Cc1cc(O)cc-3c1 [Compound 151] |
| 5 to 15 µM | ≤ 0.5 µM | > 10 µM | CC(C)[C@@H](C(=O)N[C@H]1Cc2cc(O)cc(c2)-c2ccc3nnn(c3c2)CC(C)(C)COC(=O)[C@@H]2CCCN(N2)C1=O)N(C)C(=O)C1CN(C(=O)CCl)C1 [Compound 175] |
| 5 to 15 µM | ≤ 0.5 µM | 1 to 10 µM | CC(C)[C@@H](C(=O)N[C@H]1Cc2cc(O)cc(c2)-c2ccc3c(c2)N(CC(C)(C)COC(=O)[C@@H]2CCCN(N2)C1=O)C(=O)C3)N(C)C(=O)C1CN(C(=O)CCl)C1 [Compound 177] |
| 5 to 15 µM | > 5 µM | > 10 µM | CCN1CCC(=O)N2C[C@H](C)COC(=O)[C@@H]3CCCN(N3)C(=O)[C@@H](NC(=O)[C@H](C(C)C)N(C)C(=O)C3CN(C(=O)CCl)C3)Cc3cc(O)cc(c3)-c3ccc1c2c3 [Compound 186] |
| 5 to 15 µM | > 5 µM | > 10 µM | CCN1CCCN2C[C@H](C)COC(=O)[C@@H]3CCCN(N3)C(=O)[C@@H](NC(=O)[C@H](C(C)C)N(C)C(=O)C3CN(C(=O)CCl)C3)Cc3cc(O)cc(c3)-c3ccc1c2c3 [Compound 187] |
| ≤ 5 µM | > 5 µM | > 10 µM | CCN1C(=O)CCN2C[C@H](C)COC(=O)[C@@H]3CCCN(N3)C(=O)[C@@H](NC(=O)[C@H](C(C)C)N(C)C(=O)C3CN(C(=O)CCl)C3)Cc3cc(O)cc(c3)-c3ccc1c2c3 [Compound 188] |
| ≤ 5 µM | ≤ 0.5 µM | ≤ 1 µM | CC(C)[C@@H](C(=O)N[C@H]1Cc2cc(O)cc(c2)-c2ccc3c(c2)n(c(=O)n3C)CC(C)(C)COC(=O)[C@@H]2CCCN(N2)C1=O)N(C)C(=O)C1CN(C(=O)CCl)C1 [Compound 189] |
| > 15 µM | ≤ 0.5 µM | ≤ 1 µM | CC(C)[C@@H](C(=O)N[C@H]1Cc2cc(O)cc(c2)-c2ccc3c(Cl)nn(c3c2)CC(C)(C)COC(=O)[C@@H]2CCCN(N2)C1=O)N(C)C(=O)C1CN(C(=O)CCl)C1 [Compound 201] |
| ≤ 5 µM | ≤ 0.5 µM | 1 to 10 µM | CC(C)[C@@H](C(=O)N[C@H]1Cc2cc(O)cc(c2)-c2ccc3c(C(F)F)nn(c3c2)C[C@H](C)COC(=O)[C@@H]2CCCN(N2)C1=O)N(C)C(=O)C1CN(C(=O)CCl)C1 [Compound 202] |
